Experimental data: patent US20140309244A1, “NOVEL MICROBIOCIDES” (SYNGENTA PARTICIPATIONS AG, priority 2010, published 2014)

Tests used:
Gaeumannomyces graminis = Gaeumannomyces graminis / liquid culture (take-all of cereals); type: cell-based; settings: liquid culture of mycelial fragments, PDB potato dextrose broth, 96-well plate, 24° C., 4-5 days after application, read-out: control of Gaeumannomyces graminis (inhibition of growth, photometric)
Pyrenophora teres = Pyrenophora teres / barley / leaf disc preventative (net blotch); type: in vivo; settings: foliar, barley cv Hasso leaf segments, inoculated two days after application, assessed 5-7 days after application, read-out: control of Pyrenophora teres (disease control compared to untreated)
[1] = system: Mycosphaerella arachidis (Cercospora arachidicola); assay: Mycosphaerella arachidis (Cercospora arachidicola) / liquid culture (early leaf spot); type: cell-based; settings: PDB potato dextrose broth, 96-well plate, 24° C., 4-5 days after application, read-out: control of Mycosphaerella arachidis (inhibition of growth, photometric)
[2] = system: Botryotinia fuckeliana (Botrytis cinerea); assay: Botryotinia fuckeliana (Botrytis cinerea) / liquid culture (gray mould); type: cell-based; settings: Vogels broth, 96-well plate, 24° C., 3-4 days after application, read-out: control of Botryotinia fuckeliana (inhibition of growth, photometric)
[3] = system: Blumeria graminis f. sp. tritici (Erysiphe graminis f. sp. tritici); assay: Blumeria graminis f. sp. tritici (Erysiphe graminis f. sp. tritici) / wheat / leaf disc preventative (powdery mildew on wheat); type: in vivo; settings: foliar, wheat cv. Kanzler leaf segments, inoculated 1 day after application, assessed 6-8 days after application, read-out: control of Blumeria graminis (percent disease control compared to untreated)
[4] = system: Mycosphaerella graminicola (Septoria tritici); assay: Mycosphaerella graminicola (Septoria tritici) / liquid culture (Septoria blotch); type: cell-based; settings: Zymoseptoria tritici, PDB potato dextrose broth, 96-well plate, 24° C., 4-5 days after application, read-out: control of Mycosphaerella graminicola (inhibition of growth, photometric)
[5] = system: Glomerella lagenarium (Colletotrichum lagenarium); assay: Glomerella lagenarium (Colletotrichum lagenarium) / liquid culture (anthracnose); type: cell-based; settings: Colletotrichum orbiculare, PDB potato dextrose broth, 96-well plate, 24° C., 3-4 days after application, read-out: control of Glomerella lagenarium (inhibition of growth, photometric)
[6] = system: Puccinia recondita f. sp. tritici; assay: Puccinia recondita f. sp. tritici / wheat / leaf disc preventative (brown rust); type: in vivo; settings: foliar, wheat cv Kanzler leaf segments, inoculated 1 day after application, assessed 7-9 days after application, read-out: control of Puccinia recondita f. sp. tritici (percent disease control compared to untreated)
Description: Puccinia recondita f. sp. tritici/Wheat/Leaf Disc Preventative (Brown Rust) Wheat leaf segments cultivated variety (cv) Kanzler were placed on agar in 24-well plates and sprayed with formulated test compound diluted in water at an application rate of 200 ppm. The leaf disks were inoculated with a spore suspension of the fungus 1 day after application. The inoculated leaf segments were incubated at 19° C. and 75% relative humidity under a light regime of 12/12 h (light/dark) in a climate cabinet and the activity of a compound was assessed as percent disease control compared to untreated when an appropriate level of disease damage appears in untreated check leaf segments (7-9 days after application). […].103

[7] = system: Phaeosphaeria nodorum (Septoria nodorum); assay: Phaeosphaeria nodorum (Septoria nodorum) / wheat / leaf disc preventative (glume blotch); type: in vivo; settings: Parastagonospora nodorum, foliar, wheat cv Kanzler leaf segments, inoculated 2 days after application, assessed 5-7 days after application, read-out: control of Phaeosphaeria nodorum (percent disease control compared to untreated)
[8] = system: Puccinia recondita f. sp. tritici; assay: Puccinia recondita f. sp. tritici / wheat / leaf disc curative (brown rust); type: in vivo; settings: foliar, wheat cv Kanzler leaf segments, applied 1 day after inoculation, assessed 6-8 days after application, read-out: control of Puccinia recondita f. sp. tritici (percent disease control compared to untreated)
Description: Puccinia recondita f. sp. tritici/Wheat/Leaf Disc Curative (Brown Rust): Wheat leaf segments cv Kanzler were placed on agar in 24-well plates. The leaf segments were inoculated with a spore suspension of the fungus. The plates were stored in darkness at 19° C. and 75% relative humidity. The formulated test compound diluted in water was applied at an application rate of 200 ppm 1 day after inoculation.

[9] = system: Monographella nivalis (Microdochium nivale); assay: Monographella nivalis (Microdochium nivale) / liquid culture (foot rot cereals); type: cell-based; settings: PDB potato dextrose broth, 96-well plate, 24° C., 4-5 days after application, read-out: control of Monographella nivalis (inhibition of growth, photometric)
Description: Monographella nivalis (Microdochium nivale)/Liquid Culture (Foot Rot Cereals): Conidia of the fungus from cryogenic storage were directly mixed into nutrient broth (PDB potato dextrose broth). After placing a DMSO solution of test compound into a 96-well microtiter plate at an application rate of 200 ppm, the nutrient broth containing the fungal spores was added. The test plates were incubated at 24° C. and the inhibition of growth was determined photometrically 4-5 days after application. […].103

[10] = system: Thanatephorus cucumeris (Rhizoctonia solani); assay: Thanatephorus cucumeris (Rhizoctonia solani) / liquid culture (foot rot, damping-off); type: cell-based; settings: liquid culture of mycelia fragments, PDB potato dextrose broth, 96-well plate, 24° C., 3-4 days after application, read-out: control of Thanatephorus cucumeris (inhibition of growth, photometric)
Description: Thanatephorus cucumeris (Rhizoctonia solani)/Liquid Culture (Foot Rot, Damping-Off): Mycelia fragments of a newly grown liquid culture of the fungus are directly mixed into nutrient broth (PDB potato dextrose broth). After placing a DMSO solution of the test compounds into a 96-well microtiter plate at an application rate of 200 ppm, the nutrient broth containing the fungal material was added. The test plates were incubated at 24° C. and the inhibition of growth was determined photometrically 3-4 days after application.

CO/N=C(/c1cccc(CCCO/N=C(\C)c2cccc(C)n2)n1)C(C)C (single isomer, unassigned) [P.23A]
≥ 80%: inhibition at 200 ppm (Gaeumannomyces graminis) | pest or weed control at 200 ppm (Pyrenophora teres) | inhibition at 200 ppm [1] | inhibition at 200 ppm [2] | pest or weed control at 200 ppm [3] | inhibition at 200 ppm [4]

CCO/N=C(\C)c1cccc(CCCO/N=C(\C)c2cccc(C)n2)n1 [P.01]
≥ 80%: inhibition at 200 ppm [5] | pest or weed control at 200 ppm [6] | pest or weed control at 200 ppm (Pyrenophora teres) | inhibition at 200 ppm [1] | inhibition at 200 ppm [2] | pest or weed control at 200 ppm [3] | inhibition at 200 ppm [4] | pest or weed control at 200 ppm [7] | pest or weed control at 200 ppm [8]

C#CCO/N=C(\C)c1cccc(CCCO/N=C(\C)c2cccc(C)n2)n1 [P.02]
≥ 80%: inhibition at 200 ppm (Gaeumannomyces graminis) | inhibition at 200 ppm [9] | inhibition at 200 ppm [1] | inhibition at 200 ppm [2] | inhibition at 200 ppm [4] | pest or weed control at 200 ppm [7] | pest or weed control at 200 ppm [8]

CO/N=C(\C)c1cccc(CC(C)CO/N=C(\C)c2cccc(C)n2)n1 (stereo not shown) [P.03]
≥ 80%: inhibition at 200 ppm [5] | pest or weed control at 200 ppm [6] | inhibition at 200 ppm [10] | pest or weed control at 200 ppm (Pyrenophora teres) | inhibition at 200 ppm [9] | inhibition at 200 ppm [1] | inhibition at 200 ppm [2] | pest or weed control at 200 ppm [3] | inhibition at 200 ppm [4] | pest or weed control at 200 ppm [7] | pest or weed control at 200 ppm [8]

CO/N=C(\C)c1cccc(CCCO/N=C(\C)c2cccc(-c3ccccc3OC)n2)n1 [P.08]
≥ 80%: pest or weed control at 200 ppm [6] | pest or weed control at 200 ppm (Pyrenophora teres) | inhibition at 200 ppm [9] | inhibition at 200 ppm [1] | inhibition at 200 ppm [2] | pest or weed control at 200 ppm [3] | inhibition at 200 ppm [4] | pest or weed control at 200 ppm [7] | pest or weed control at 200 ppm [8]

C=CCO/N=C(\C)c1cccc(CCCO/N=C(\C)c2cccc(C)n2)n1 [P.09]
≥ 80%: inhibition at 200 ppm [5] | pest or weed control at 200 ppm [6] | pest or weed control at 200 ppm (Pyrenophora teres) | inhibition at 200 ppm [9] | inhibition at 200 ppm [1] | inhibition at 200 ppm [2] | pest or weed control at 200 ppm [3] | inhibition at 200 ppm [4] | pest or weed control at 200 ppm [7] | pest or weed control at 200 ppm [8]

CO/N=C(\C)c1cccc(CCCO/N=C(\C)c2cccc(-c3cccc(OC)c3)n2)n1 [P.14]
≥ 80%: pest or weed control at 200 ppm [6] | inhibition at 200 ppm (Gaeumannomyces graminis) | pest or weed control at 200 ppm (Pyrenophora teres) | inhibition at 200 ppm [1] | inhibition at 200 ppm [4] | pest or weed control at 200 ppm [7]

CCc1cccc(/C(C)=N/OCCCc2cccc(/C(C)=N/OC)n2)n1 [P.19]
≥ 80%: inhibition at 200 ppm [10] | pest or weed control at 200 ppm (Pyrenophora teres) | inhibition at 200 ppm [1] | inhibition at 200 ppm [2] | inhibition at 200 ppm [4] | pest or weed control at 200 ppm [7] | pest or weed control at 200 ppm [8]

CC/C(=N\OC)c1cccc(CCCO/N=C(\C)c2cccc(C)n2)n1 [P.22]
≥ 80%: inhibition at 200 ppm [5] | pest or weed control at 200 ppm [6] | inhibition at 200 ppm (Gaeumannomyces graminis) | pest or weed control at 200 ppm (Pyrenophora teres) | inhibition at 200 ppm [9] | inhibition at 200 ppm [1] | inhibition at 200 ppm [2] | pest or weed control at 200 ppm [3] | inhibition at 200 ppm [4] | pest or weed control at 200 ppm [7] | pest or weed control at 200 ppm [8]

CO/N=C(\C)c1cccc(CCCO/N=C(/c2ccccn2)c2ncc(C(F)(F)F)cc2Cl)n1 [P.51]
≥ 80%: inhibition at 200 ppm [5] | inhibition at 200 ppm (Gaeumannomyces graminis) | inhibition at 200 ppm [10] | inhibition at 200 ppm [9] | inhibition at 200 ppm [1] | inhibition at 200 ppm [2] | inhibition at 200 ppm [4] | pest or weed control at 200 ppm [7]

CO/N=C(\C)c1cccc(CCCO/N=C2\CCCc3c2nc2ccccc2c3C)n1 [P.55]
≥ 80%: inhibition at 200 ppm [5] | pest or weed control at 200 ppm [6] | inhibition at 200 ppm (Gaeumannomyces graminis) | pest or weed control at 200 ppm (Pyrenophora teres) | inhibition at 200 ppm [9] | inhibition at 200 ppm [1] | inhibition at 200 ppm [2] | pest or weed control at 200 ppm [3] | inhibition at 200 ppm [4] | pest or weed control at 200 ppm [7] | pest or weed control at 200 ppm [8]

CO/N=C(\C)c1cccc(CCCO/N=C2\CCCc3ccc(OC)nc32)n1 [P.56]
≥ 80%: inhibition at 200 ppm [5] | inhibition at 200 ppm (Gaeumannomyces graminis) | inhibition at 200 ppm [10] | inhibition at 200 ppm [9] | inhibition at 200 ppm [1] | inhibition at 200 ppm [2] | pest or weed control at 200 ppm [3] | inhibition at 200 ppm [4] | pest or weed control at 200 ppm [7] | pest or weed control at 200 ppm [8]

CO/N=C(\C)c1cccc(CCCO/N=C2\CCCc3c2nc2cc(OC)ccc2c3C)n1 [P.69]
≥ 80%: inhibition at 200 ppm [5] | pest or weed control at 200 ppm [6] | inhibition at 200 ppm (Gaeumannomyces graminis) | inhibition at 200 ppm [10] | inhibition at 200 ppm [9] | inhibition at 200 ppm [1] | inhibition at 200 ppm [2] | pest or weed control at 200 ppm [3] | inhibition at 200 ppm [4] | pest or weed control at 200 ppm [7] | pest or weed control at 200 ppm [8]

CO/N=C(\C)c1cccc(CCCO/N=C2\CCCc3c2nc2cc(Cl)ccc2c3C)n1 [P.83]
≥ 80%: inhibition at 200 ppm [5] | inhibition at 200 ppm (Gaeumannomyces graminis) | pest or weed control at 200 ppm (Pyrenophora teres) | inhibition at 200 ppm [1] | inhibition at 200 ppm [2] | pest or weed control at 200 ppm [3] | inhibition at 200 ppm [4]

CO/N=C(\C)c1cccc(CCCO/N=C2\CCCc3c2nc2ccc(Br)cc2c3C)n1 [P.84]
≥ 80%: inhibition at 200 ppm [5] | inhibition at 200 ppm (Gaeumannomyces graminis) | pest or weed control at 200 ppm (Pyrenophora teres) | inhibition at 200 ppm [1] | inhibition at 200 ppm [2] | pest or weed control at 200 ppm [3] | inhibition at 200 ppm [4] | pest or weed control at 200 ppm [7]

CO/N=C(\C)c1cccc(CCCO/N=C2\CCCc3c2nc2ccccc2c3Cl)n1 [P.95]
≥ 80%: inhibition at 200 ppm [5] | inhibition at 200 ppm (Gaeumannomyces graminis) | inhibition at 200 ppm [10] | pest or weed control at 200 ppm (Pyrenophora teres) | inhibition at 200 ppm [9] | inhibition at 200 ppm [1] | inhibition at 200 ppm [2] | inhibition at 200 ppm [4] | pest or weed control at 200 ppm [7]

CO/N=C(\C)c1cc(OC)cc(CCCO/N=C(\C)c2cccc(C)n2)n1 [P.103]
≥ 80%: inhibition at 200 ppm [5] | pest or weed control at 200 ppm [6] | inhibition at 200 ppm (Gaeumannomyces graminis) | pest or weed control at 200 ppm (Pyrenophora teres) | inhibition at 200 ppm [9] | inhibition at 200 ppm [1] | inhibition at 200 ppm [2] | pest or weed control at 200 ppm [3] | inhibition at 200 ppm [4] | pest or weed control at 200 ppm [7] | pest or weed control at 200 ppm [8]
